The target in the first assay is D-amino-acid oxidase (Sus scrofa, UniProt P00371). Put plainly: Inhibition of pig DAAO assessed as D-Serine conversion to H2O2 by spectrophotometric analysis.
Sequence of D-amino-acid oxidase (Homo sapiens, UniProt P14920) (P14920 whole entry): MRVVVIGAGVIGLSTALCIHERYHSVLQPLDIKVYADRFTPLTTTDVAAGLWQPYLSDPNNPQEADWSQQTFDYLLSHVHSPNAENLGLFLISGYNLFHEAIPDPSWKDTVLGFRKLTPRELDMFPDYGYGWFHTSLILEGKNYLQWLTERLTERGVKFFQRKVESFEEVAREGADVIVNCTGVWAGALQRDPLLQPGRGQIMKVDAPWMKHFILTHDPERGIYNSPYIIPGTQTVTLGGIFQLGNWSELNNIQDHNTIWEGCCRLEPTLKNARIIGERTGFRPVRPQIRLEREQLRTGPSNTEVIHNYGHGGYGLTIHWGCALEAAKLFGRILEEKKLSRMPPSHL
Sequence of D-amino-acid oxidase (Sus scrofa, UniProt P00371) (P00371 whole entry): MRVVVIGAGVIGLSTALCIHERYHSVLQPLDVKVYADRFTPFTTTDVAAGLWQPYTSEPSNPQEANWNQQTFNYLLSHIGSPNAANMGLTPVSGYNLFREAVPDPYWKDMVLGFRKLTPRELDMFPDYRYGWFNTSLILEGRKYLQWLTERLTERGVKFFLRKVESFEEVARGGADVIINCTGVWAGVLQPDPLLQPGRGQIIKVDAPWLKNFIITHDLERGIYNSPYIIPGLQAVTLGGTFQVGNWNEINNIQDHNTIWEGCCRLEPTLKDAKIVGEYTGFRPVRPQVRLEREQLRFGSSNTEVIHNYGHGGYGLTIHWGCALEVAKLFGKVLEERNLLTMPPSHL
As for `O=C(O)c1cc(CCc2ccccc2)[nH]n1`, the IC50 was less than 1000 nM. Consider `O=C(O)c1cc[nH]n1`, for which the 50% inhibitory concentration (IC50) was less than 100000 nM. The same measure, in the same setting: to `O=C(O)c1cc(CCc2ccccc2)c[nH]1` belongs less than 1000 nM; to `O=C(O)c1ccc[nH]1`, less than 10000 nM.

A further assay addresses D-amino-acid oxidase (Homo sapiens, UniProt P14920). Put plainly: Inhibition of human recombinant DAAO expressed in HEK293 cell lysate assessed as D-Serine conversion to H2O2 after 20 mins by spectrophotometric analysis. The class given is cell-free.
As to `O=c1cc(COCc2ccccc2)occ1O`, the IC50 amounted to 20000 nM. As to `O=c1cc(COc2cccnc2)occ1O`, the IC50 was 3000 nM. Still for that read-out and setting: to `O=c1cc(CSc2ccc(F)cc2)occ1O` belongs 300 nM; to `O=c1cc(CSc2ncccn2)occ1O`, 4000 nM. Same read-out and setting: to `O=c1cc(CSc2ccccc2)occ1O` belongs 200 nM. Same read-out and setting: in the case of `O=c1cc(COc2ccc(F)cc2)occ1O` it was 800 nM; in that of `COc1coc(CO)cc1=O`, more than 100000 nM. Take `O=c1ccn(CCc2ccccc2)cc1O`: the IC50 is more than 100000 nM. On the same count and under the same terms, in the case of `O=c1cc(COc2ccc(Cl)cc2)occ1O` it was 700 nM; in that of `O=c1cc(COc2ccccc2)occ1O`, 900 nM; in that of `O=c1cc(COc2ccc3ccccc3c2)occ1O`, 800 nM. The same measure, in the same setting: to `O=c1cc(CCc2ccccc2)occ1O` belongs 500 nM; to `O=c1cc(COC2CCCCO2)occ1O` (stereo not drawn), more than 100000 nM; to `O=c1cc(CSc2ccc(Cl)c(Cl)c2)occ1O`, 100 nM.

Take `O=c1cc(CSc2ccc(Cl)cc2)occ1O`: the IC50 stood at 200 nM. Same read-out and setting: in the case of `CCOCc1cc(=O)c(O)co1` it was more than 100000 nM. The same measure, in the same setting: to `O=c1cc(COc2ccc(Cl)c(Cl)c2)occ1O` belongs 500 nM; to `COCc1cc(=O)c(O)co1`, 50000 nM. Still for that read-out and setting: to `O=c1cc(COc2cccc3ccccc23)occ1O` belongs 900 nM.

The record behind these values is ChEMBL document CHEMBL2396605 (Bioorg Med Chem Lett, 2013).
